Patent publication US8969294B2 (Istituto di Recerche di Biologia Molecolare P. Angeletti …, priority 2008, dated 2015)
Bridge positions count the residues as written; N and C are the ends. Square brackets hold non-standard residues; d marks the D form. Peptide text beside a SMILES is read from it. * marks the point of attachment. Palmitoyl = CCCCCCCCCCCCCCCC(=O)*; Aib = CC(C)(N)C(=O)O

Biological target: glucagon receptor (Homo sapiens, UniProt P47871)
Assay: Functional assay, cAMP synthesis: luciferase reporter in HEK293 cells co-transfected with glucagon receptor
[1] = EC50, Glucagon Receptor, Table 13
[2] = EC50 at Glucagon Receptor, Table 31

glucagon receptor, sequence (P47871 26-477): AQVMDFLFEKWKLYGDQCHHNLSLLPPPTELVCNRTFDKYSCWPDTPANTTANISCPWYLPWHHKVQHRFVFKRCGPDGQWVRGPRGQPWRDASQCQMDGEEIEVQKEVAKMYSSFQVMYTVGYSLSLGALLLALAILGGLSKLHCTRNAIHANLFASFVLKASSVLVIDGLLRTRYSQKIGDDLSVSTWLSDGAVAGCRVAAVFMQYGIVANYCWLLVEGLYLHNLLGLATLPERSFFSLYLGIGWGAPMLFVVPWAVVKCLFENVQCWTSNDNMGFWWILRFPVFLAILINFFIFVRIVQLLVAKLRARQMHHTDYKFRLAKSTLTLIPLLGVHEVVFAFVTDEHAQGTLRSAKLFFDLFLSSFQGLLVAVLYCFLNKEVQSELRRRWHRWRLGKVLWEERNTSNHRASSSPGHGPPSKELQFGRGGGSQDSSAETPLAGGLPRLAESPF

Row | Structure (SMILES) | EC50 [1] [nM] | EC50 [2] [nM] | further results
1 | CCCCCCCCCCCCCCCC(=O)N[C@@H](Cc1c[nH]c2ccccc12)C(=O)NCCCC[C@H](NC(=O)[C@H](CC(=O)O)NC(=O)[C@H](CO)NC(=O)[C@@H](NC(=O)[C@H](Cc1ccccc1)NC(=O)[C@@H](NC(=O)CNC(=O)[C@H](CCC(N)=O)NC(=O)[C@H](CO)NC(=O)[C@@H](N)Cc1c[nH]cn1)[C@@H](C)O)[C@@H](C)O)C(=O)N[C@@H](CO)C(=O)N[C@@H](CCCCN)C(=O)N[C@@H](Cc1ccc(O)cc1)C(=O)N[C@@H](CC(C)C)C(=O)N[C@@H](CC(=O)O)C(=O)N[C@@H](CCC(=O)O)C(=O)N[C@@H](CCCNC(=N)N)C(=O)N[C@@H](CCCNC(=N)N)C(=O)N[C@@H](C)C(=O)N[C@@H](CCCCN)C(=O)N[C@@H](CC(=O)O)C(=O)N[C@@H](Cc1ccccc1)C(=O)N[C@H](C(=O)N[C@@H](CCC(N)=O)C(=O)N[C@@H](Cc1c[nH]c2ccccc12)C(=O)N[C@@H](CC(C)C)C(=O)N[C@@H](CCSC)C(=O)N[C@@H](CC(N)=O)C(=O)N[C@H](C(N)=O)[C@@H](C)O)C(C)C [E16 K20-glucagon-NH2 with K^10—W—C16] | 0.14 | – | –
2 | CCCCCCCCCCCCCCCCCC(=O)N[C@@H](Cc1c[nH]c2ccccc12)C(=O)NCCCC[C@H](NC(=O)[C@H](CC(=O)O)NC(=O)[C@H](CO)NC(=O)[C@@H](NC(=O)[C@H](Cc1ccccc1)NC(=O)[C@@H](NC(=O)CNC(=O)[C@H](CCC(N)=O)NC(=O)[C@H](CO)NC(=O)[C@@H](N)Cc1c[nH]cn1)[C@@H](C)O)[C@@H](C)O)C(=O)N[C@@H](CO)C(=O)N[C@@H](CCCCN)C(=O)N[C@@H](Cc1ccc(O)cc1)C(=O)N[C@@H](CC(C)C)C(=O)N[C@@H](CC(=O)O)C(=O)N[C@@H](CCC(=O)O)C(=O)N[C@@H](CCCNC(=N)N)C(=O)N[C@@H](CCCNC(=N)N)C(=O)N[C@@H](C)C(=O)N[C@@H](CCCCN)C(=O)N[C@@H](CC(=O)O)C(=O)N[C@@H](Cc1ccccc1)C(=O)N[C@H](C(=O)N[C@@H](CCC(N)=O)C(=O)N[C@@H](Cc1c[nH]c2ccccc12)C(=O)N[C@@H](CC(C)C)C(=O)N[C@@H](CCSC)C(=O)N[C@@H](CC(N)=O)C(=O)N[C@H](C(N)=O)[C@@H](C)O)C(C)C [E16 K20-glucagon-NH2 with K^10—W—C18] | 0.05 | – | EC50 (EC50 at Glucagon Receptor, Table 17): 0.044 nM
3 | CSCC[C@H](NC(=O)[C@H](CC(C)C)NC(=O)[C@H](Cc1c[nH]c2ccccc12)NC(=O)[C@H](CC(N)=O)NC(=O)[C@@H](NC(=O)[C@H](Cc1ccccc1)NC(=O)[C@H](CCC(=O)O)NC(=O)[C@@H]1CCCCNC(=O)CC[C@H](NC(=O)[C@H](CC(=O)O)NC(=O)[C@H](CC(C)C)NC(=O)[C@H](Cc2ccc(O)cc2)NC(=O)[C@H](CCCCN)NC(=O)[C@H](CO)NC(=O)[C@H](Cc2ccc(O)cc2)NC(=O)[C@H](CC(=O)O)NC(=O)[C@H](CO)NC(=O)[C@@H](NC(=O)[C@H](Cc2ccccc2)NC(=O)[C@@H](NC(=O)CNC(=O)[C@H](CCC(N)=O)NC(=O)[C@H](CO)NC(=O)[C@@H](N)Cc2ccc(O)cc2)[C@@H](C)O)[C@@H](C)O)C(=O)N[C@@H](CCC(N)=O)C(=O)N[C@@H](C)C(=O)N[C@@H](C)C(=O)N1)C(C)C)C(=O)N[C@@H](CC(N)=O)C(=O)NCC(=O)NCC(=O)N1CCC[C@H]1C(=O)N[C@@H](CO)C(=O)N[C@@H](CO)C(=O)NCC(=O)N[C@@H](C)C(=O)N1CCC[C@H]1C(=O)N1CCC[C@H]1C(=O)N1CCC[C@H]1C(=O)N[C@@H](CO)C(N)=O [SEQ ID NO: 555] (H-YSQGTFTSDYSKYLDEQAAKEFVNWLMNGGPSSGAPPPS-NH2; lactam 16-20; N-terminus assumed) | – | – | EC50 (EC50, Glucagon receptor, Table 18): 0.044 nM

Now from value to compound, other results behind:

Row | EC50 [1] [nM] | EC50 [2] [nM] | Structure (SMILES) | further results
4 | – | 46.1 | CCCCCCCCCCCCCCCC(=O)NCCCC[C@H](NC(=O)[C@H](CC(=O)O)NC(=O)[C@H](CO)NC(=O)[C@@H](NC(=O)[C@H](Cc1ccccc1)NC(=O)[C@@H](NC(=O)CNC(=O)[C@H](CCC(=O)O)NC(=O)C(C)(C)NC(=O)[C@@H](N)Cc1c[nH]cn1)[C@@H](C)O)[C@@H](C)O)C(=O)N[C@@H](CO)C(=O)N[C@@H](CCCCN)C(=O)N[C@@H](Cc1ccc(O)cc1)C(=O)N[C@@H](CC(C)C)C(=O)N[C@@H](CC(=O)O)C(=O)N[C@@H](CCC(=O)O)C(=O)N[C@@H](CCC(N)=O)C(=O)N[C@@H](C)C(=O)N[C@@H](C)C(=O)N[C@@H](CCCCN)C(=O)N[C@@H](CCC(=O)O)C(=O)N[C@@H](Cc1ccccc1)C(=O)N[C@H](C(=O)N[C@@H](C)C(=O)N[C@@H](Cc1c[nH]c2ccccc12)C(=O)N[C@@H](CC(C)C)C(=O)N[C@@H](CCSC)C(=O)N[C@@H](CC(N)=O)C(=O)N[C@H](C(N)=O)[C@@H](C)O)[C@@H](C)CC [compound 647] (H-H[Aib]EGTFTSDK(Palmitoyl)SKYLDEQAAKEFIAWLMNT-NH2; N-terminus assumed) | –
5 | – | 0.007 | CCCCCCCCCCCCCCCC(=O)N[C@@H](CCC(=O)N[C@@H](CCC(=O)NCCCC[C@H](NC(=O)[C@H](CC(=O)O)NC(=O)[C@H](CO)NC(=O)[C@@H](NC(=O)[C@H](Cc1ccccc1)NC(=O)[C@@H](NC(=O)CNC(=O)[C@H](CCC(N)=O)NC(=O)C(C)(C)NC(=O)[C@@H](N)Cc1c[nH]cn1)[C@@H](C)O)[C@@H](C)CC)C(=O)N[C@@H](CO)C(=O)N[C@@H](CCCCN)C(=O)N[C@@H](Cc1ccc(O)cc1)C(=O)N[C@@H](CC(C)C)C(=O)N[C@@H](CC(=O)O)C(=O)N[C@@H](CCC(=O)O)C(=O)N[C@@H](CCC(N)=O)C(=O)N[C@@H](C)C(=O)N[C@@H](C)C(=O)N[C@@H](CCCCN)C(=O)N[C@@H](CCC(=O)O)C(=O)N[C@@H](Cc1ccccc1)C(=O)N[C@H](C(=O)N[C@@H](C)C(=O)N[C@@H](Cc1c[nH]c2ccccc12)C(=O)N[C@@H](CC(C)C)C(=O)N[C@@H](CCSC)C(=O)N[C@@H](CC(N)=O)C(=O)N[C@H](C(N)=O)[C@@H](C)O)[C@@H](C)CC)C(=O)O)C(=O)O [compound 650] | –
6 | – | 0.008 | CCCCCCCCCCCCCCCC(=O)N[C@@H](CCC(=O)N[C@@H](CCC(=O)NCCCC[C@H](NC(=O)[C@H](CC(=O)O)NC(=O)[C@H](CO)NC(=O)[C@@H](NC(=O)[C@H](Cc1ccccc1)NC(=O)[C@@H](NC(=O)CNC(=O)[C@H](CCC(N)=O)NC(=O)[C@@H](CO)NC(=O)[C@@H](N)Cc1c[nH]cn1)[C@@H](C)O)[C@@H](C)O)C(=O)N[C@@H](CO)C(=O)N[C@@H](CCCCN)C(=O)N[C@@H](Cc1ccc(O)cc1)C(=O)N[C@@H](CC(C)C)C(=O)N[C@@H](CC(=O)O)C(=O)N[C@@H](CCC(=O)O)C(=O)N[C@@H](CCC(N)=O)C(=O)N[C@@H](C)C(=O)N[C@@H](C)C(=O)N[C@@H](CCCCN)C(=O)N[C@@H](CCC(=O)O)C(=O)N[C@@H](Cc1ccccc1)C(=O)N[C@H](C(=O)N[C@@H](C)C(=O)N[C@@H](Cc1c[nH]c2ccccc12)C(=O)N[C@@H](CC(C)C)C(=O)N[C@@H](CCSC)C(=O)N[C@@H](CC(N)=O)C(=O)N[C@H](C(N)=O)[C@@H](C)O)[C@@H](C)CC)C(=O)O)C(=O)O [compound 644] | –
